Source: PubChem BioAssay AID1259407 (Chemical Carcinogenesis Research Information System (CCRIS), 2018)
Calls of active or inactive are those of the source. No rule for the calls is given here.

System: CCRIS mutagenicity, Ames/micronucleus/aberration tests
Assay: CCRIS mutagenicity studies
[1] = Test System: AMES SALMONELLA TYPHIMURIUM, Strain/Indicator: TA98, Metabolic Activation: NONE, Method: STANDARD PLATE
[2] = Test System: AMES SALMONELLA TYPHIMURIUM, Strain/Indicator: TA98, Metabolic Activation: RAT, LIVER, S-9, Method: STANDARD PLATE
[3] = Test System: AMES SALMONELLA TYPHIMURIUM, Strain/Indicator: TA100, Metabolic Activation: NONE, Method: STANDARD PLATE
[4] = Test System: AMES SALMONELLA TYPHIMURIUM, Strain/Indicator: TA100, Metabolic Activation: RAT, LIVER, S-9, Method: STANDARD PLATE

Question: `Nc1cc2c3c(cccc3c1)-c1ccccc1-2` was tested. Which mutagenic call (Test System: AMES SALMONELLA TYPHIMURIUM, Strain/Indicator: TA98, Metabolic Activation: RAT, LIVER, S-9, AROCLOR 1254 (2 OR 4%), Method: STANDARD PLATE) did it give?
Answer: The mutagenic call was “active; positive”.

Question: And the mutagenic call (Test System: AMES SALMONELLA TYPHIMURIUM, Strain/Indicator: TA100, Metabolic Activation: RAT, LIVER, S-9, AROCLOR 1254 (4%), Method: STANDARD PLATE)?
Answer: The mutagenic call was “active; positive”.

Question: What about the mutagenic call (Test System: AMES SALMONELLA TYPHIMURIUM, Strain/Indicator: TA1535, Metabolic Activation: RAT, LIVER, S-9, AROCLOR 1254 (4%), Method: STANDARD PLATE) of the same compound?
Answer: Its mutagenic call is “active; positive”.

Question: And the mutagenic call (Test System: AMES SALMONELLA TYPHIMURIUM, Strain/Indicator: TA1537, Metabolic Activation: RAT, LIVER, S-9, AROCLOR 1254 (4%), Method: STANDARD PLATE)?
Answer: The mutagenic call was “active; positive”.

Question: Which mutagenic call (Test System: AMES SALMONELLA TYPHIMURIUM, Strain/Indicator: TA98, Metabolic Activation: NONE, Method: VAPOR CHAMBER) does the source give for `O=[O+][O-]` here?
Answer: The mutagenic call was “inactive; negative”.

Question: And the mutagenic call (Test System: AMES SALMONELLA TYPHIMURIUM, Strain/Indicator: TA98, Metabolic Activation: RAT, LIVER, S-9, AROCLOR 1254, Method: VAPOR CHAMBER)?
Answer: The mutagenic call was “inactive; negative”.

Question: What about the mutagenic call (Test System: AMES SALMONELLA TYPHIMURIUM, Strain/Indicator: TA100, Metabolic Activation: NONE, Method: VAPOR CHAMBER) of the same compound?
Answer: The mutagenic call was “inactive; negative”.

Question: And the mutagenic call (Test System: AMES SALMONELLA TYPHIMURIUM, Strain/Indicator: TA100, Metabolic Activation: RAT, LIVER, S-9, AROCLOR 1254, Method: VAPOR CHAMBER)?
Answer: The mutagenic call was “inactive; negative”.

Question: What about the mutagenic call (Test System: AMES SALMONELLA TYPHIMURIUM, Strain/Indicator: TA102, Metabolic Activation: NONE) of the same compound?
Answer: Its mutagenic call is “active; positive”.

Question: What about the mutagenic call (Test System: AMES SALMONELLA TYPHIMURIUM, Strain/Indicator: TA102, Metabolic Activation: NONE, Method: VAPOR CHAMBER) of the same compound?
Answer: Its mutagenic call is “active; positive”.

Question: What about the mutagenic call (Test System: AMES SALMONELLA TYPHIMURIUM, Strain/Indicator: TA102, Metabolic Activation: RAT, LIVER, S-9, AROCLOR 1254 (10%)) of the same compound?
Answer: The mutagenic call was “active; positive”.

Question: And the mutagenic call (Test System: AMES SALMONELLA TYPHIMURIUM, Strain/Indicator: TA102, Metabolic Activation: RAT, LIVER, S-9, AROCLOR 1254, Method: VAPOR CHAMBER)?
Answer: Its mutagenic call is “active; positive”.

Question: What about the mutagenic call (Test System: AMES SALMONELLA TYPHIMURIUM, Strain/Indicator: TA104, Metabolic Activation: NONE, Method: VAPOR CHAMBER) of the same compound?
Answer: Its mutagenic call is “inactive; negative”.

Question: What about the mutagenic call (Test System: AMES SALMONELLA TYPHIMURIUM, Strain/Indicator: TA104, Metabolic Activation: RAT, LIVER, S-9, AROCLOR 1254, Method: VAPOR CHAMBER) of the same compound?
Answer: Its mutagenic call is “inactive; negative”.

Question: And the mutagenic call (Test System: AMES SALMONELLA TYPHIMURIUM, Strain/Indicator: TA1535, Metabolic Activation: NONE, Method: VAPOR CHAMBER)?
Answer: Its mutagenic call is “inactive; negative”.

Question: What about the mutagenic call (Test System: AMES SALMONELLA TYPHIMURIUM, Strain/Indicator: TA1535, Metabolic Activation: RAT, LIVER, S-9, AROCLOR 1254, Method: VAPOR CHAMBER) of the same compound?
Answer: The mutagenic call was “inactive; negative”.

Question: What does the source list for `O=C1O[C@H]([C@H](O)CO)C(O)=C1O`?
Answer: mutagenic call (End Point: IN VIVO MICRONUCLEUS, Test System: BONE MARROW POLYCHROMATIC ERYTHROCYTES, Species: MOUSE, Strain/Sex: DDY/MALE, Route: IP): inactive; negative; mutagenic call (Test System: AMES SALMONELLA TYPHIMURIUM, Strain/Indicator: TA97, Metabolic Activation: NONE, Method: PREINCUBATION): inactive; negative; mutagenic call (Test System: AMES SALMONELLA TYPHIMURIUM, Strain/Indicator: TA97, Metabolic Activation: RAT, LIVER, S-9, AROCLOR 1254, Method: PREINCUBATION): inactive; negative; mutagenic call (Test System: AMES SALMONELLA TYPHIMURIUM, Strain/Indicator: TA102, Metabolic Activation: NONE, Method: PREINCUBATION): inactive; negative; mutagenic call (Test System: AMES SALMONELLA TYPHIMURIUM, Strain/Indicator: TA102, Metabolic Activation: RAT, LIVER, S-9, AROCLOR 1254, Method: PREINCUBATION): inactive; negative

Question: With `CC/C=C\C=C\CCCCCCOC(C)=O` as the compound, how does the mutagenic call [1] read?
Answer: Its mutagenic call is “inactive; negative”.

Question: What about the mutagenic call [2] of the same compound?
Answer: Its mutagenic call is “inactive; negative”.

Question: What about the mutagenic call [3] of the same compound?
Answer: The mutagenic call was “inactive; negative”.

Question: What about the mutagenic call [4] of the same compound?
Answer: The mutagenic call was “inactive; negative”.

Question: What about the mutagenic call (Test System: AMES SALMONELLA TYPHIMURIUM, Strain/Indicator: TA102, Metabolic Activation: NONE, Method: STANDARD PLATE) of the same compound?
Answer: Its mutagenic call is “inactive; negative”.

Question: What about the mutagenic call (Test System: AMES SALMONELLA TYPHIMURIUM, Strain/Indicator: TA102, Metabolic Activation: RAT, LIVER, S-9, Method: STANDARD PLATE) of the same compound?
Answer: Its mutagenic call is “inactive; negative”.

Question: Which results are given for `Nc1cccc2cccc(S(=O)(=O)O)c12`?
Answer: mutagenic call (Test System: AMES SALMONELLA TYPHIMURIUM, Strain/Indicator: TA98, Metabolic Activation: NONE, Method: PREINCUBATION): inactive; negative; mutagenic call (Test System: AMES SALMONELLA TYPHIMURIUM, Strain/Indicator: TA98, Metabolic Activation: RAT LIVER S-9, PHENOBARBITAL AND BETA-NAPHTHOFLAVONE, Method: PREINCUBATION): active; positive; mutagenic call (Test System: AMES SALMONELLA TYPHIMURIUM, Strain/Indicator: TA100, Metabolic Activation: NONE, Method: PREINCUBATION): inactive; negative; mutagenic call (Test System: AMES SALMONELLA TYPHIMURIUM, Strain/Indicator: TA100, Metabolic Activation: RAT LIVER S-9, PHENOBARBITAL AND BETA-NAPHTHOFLAVONE, Method: PREINCUBATION): inactive; negative; mutagenic call (Test System: AMES SALMONELLA TYPHIMURIUM, Strain/Indicator: TA1535, Metabolic Activation: NONE, Method: PREINCUBATION): inactive; negative; mutagenic call (Test System: AMES SALMONELLA TYPHIMURIUM, Strain/Indicator: TA1535, Metabolic Activation: RAT LIVER S-9, PHENOBARBITAL AND BETA-NAPHTHOFLAVONE, Method: PREINCUBATION): inactive; negative; mutagenic call (Test System: AMES SALMONELLA TYPHIMURIUM, Strain/Indicator: TA1537, Metabolic Activation: NONE, Method: PREINCUBATION): inactive; negative; mutagenic call (Test System: AMES SALMONELLA TYPHIMURIUM, Strain/Indicator: TA1537, Metabolic Activation: RAT LIVER S-9, PHENOBARBITAL AND BETA-NAPHTHOFLAVONE, Method: PREINCUBATION): active; positive; mutagenic call (Test System: AMES SALMONELLA TYPHIMURIUM, Strain/Indicator: TA1538, Metabolic Activation: NONE, Method: PREINCUBATION): inactive; negative; mutagenic call (Test System: AMES SALMONELLA TYPHIMURIUM, Strain/Indicator: TA1538, Metabolic Activation: RAT LIVER S-9, PHENOBARBITAL AND BETA-NAPHTHOFLAVONE, Method: PREINCUBATION): active; positive; mutagenic call (Test System: E.COLI, Strain/Indicator: WP2UVRA, Metabolic Activation: NONE, Method: PREINCUBATION): inactive; negative; mutagenic call (Test System: E.COLI, Strain/Indicator: WP2UVRA, Metabolic Activation: RAT LIVER S-9, PHENOBARBITAL AND BETA-NAPHTHOFLAVONE, Method: PREINCUBATION): inactive; negative

Question: Which mutagenic call [1] does the source give for `CCOc1cc(N=Nc2ccc(N(CC)CC)cc2)ccc1N=Nc1c(S(=O)(=O)O)cc2ccc(N)cc2c1O` here?
Answer: The mutagenic call was “inactive; negative”.

Question: And the mutagenic call (Test System: AMES SALMONELLA TYPHIMURIUM, Strain/Indicator: TA98, Metabolic Activation: RAT, LIVER, S-9, AROCLOR 1254, Method: STANDARD PLATE)?
Answer: Its mutagenic call is “active; positive”.

Question: And the mutagenic call [3]?
Answer: Its mutagenic call is “inactive; negative”.

Question: And the mutagenic call (Test System: AMES SALMONELLA TYPHIMURIUM, Strain/Indicator: TA100, Metabolic Activation: RAT, LIVER, S-9, AROCLOR 1254, Method: STANDARD PLATE)?
Answer: Its mutagenic call is “inactive; negative”.

Question: What about the mutagenic call (Test System: AMES SALMONELLA TYPHIMURIUM, Strain/Indicator: TA1538, Metabolic Activation: NONE, Method: STANDARD PLATE) of the same compound?
Answer: The mutagenic call was “inactive; negative”.

Question: What about the mutagenic call (Test System: AMES SALMONELLA TYPHIMURIUM, Strain/Indicator: TA1538, Metabolic Activation: RAT, LIVER, S-9, AROCLOR 1254, Method: STANDARD PLATE) of the same compound?
Answer: The mutagenic call was “active; positive”.

Question: What does the source list for `CCC1(CC(=O)O)OCCc2c1[nH]c1c(C)cccc21` (stereo not given)?
Answer: mutagenic call [1]: inactive; negative; mutagenic call [2]: inactive; negative; mutagenic call [3]: inactive; negative; mutagenic call [4]: inactive; negative; mutagenic call (Test System: AMES SALMONELLA TYPHIMURIUM, Strain/Indicator: TA1535, Metabolic Activation: NONE, Method: STANDARD PLATE): inactive; negative; mutagenic call (Test System: AMES SALMONELLA TYPHIMURIUM, Strain/Indicator: TA1535, Metabolic Activation: RAT, LIVER, S-9, Method: STANDARD PLATE): inactive; negative; mutagenic call (Test System: AMES SALMONELLA TYPHIMURIUM, Strain/Indicator: TA1537, Metabolic Activation: NONE, Method: STANDARD PLATE): inactive; negative; mutagenic call (Test System: AMES SALMONELLA TYPHIMURIUM, Strain/Indicator: TA1537, Metabolic Activation: RAT, LIVER, S-9, Method: STANDARD PLATE): inactive; negative; mutagenic call (Test System: E. COLI, Strain/Indicator: WP2 UVRA, Metabolic Activation: NONE, Method: STANDARD PLATE): inactive; negative; mutagenic call (Test System: E. COLI, Strain/Indicator: WP2 UVRA, Metabolic Activation: RAT, LIVER, S-9, Method: STANDARD PLATE): inactive; negative
